Source: the NIST ThermoML archive (doi:10.1016/j.jct.2004.07.031)
Several values for one entry are separate records, joined by “and”; a condition that tells them apart may be missing. Identical values can stand only once. Numbers after ± are expanded uncertainties.

Assay: molar heat capacity at constant pressure
Settings: 101.33 kPa, Crystal, PPMS instrument (Quantum Design)

O=P([O-])([O-])[O-].[La+3] [lanthanum orthophosphate]
Settings | molar heat capacity at constant pressure
9.994 K | 0.1666 ± 0.0051 J/K/mol
10 K | 0.1669 ± 0.0051 J/K/mol
10.01 K | 0.1671 ± 0.0051 J/K/mol
10.19 K | 0.1769 ± 0.0054 J/K/mol
10.2 K | 0.1776 ± 0.0054 J/K/mol and 0.1771 ± 0.0054 J/K/mol
10.21 K | 0.1778 ± 0.0054 J/K/mol
11.18 K | 0.2376 ± 0.0073 J/K/mol
12.19 K | 0.3139 ± 0.0096 J/K/mol
13.19 K | 0.4068 ± 0.012 J/K/mol
14.19 K | 0.5187 ± 0.016 J/K/mol
15.2 K | 0.6528 ± 0.02 J/K/mol
16.21 K | 0.8094 ± 0.025 J/K/mol
17.22 K | 0.9882 ± 0.03 J/K/mol
18.24 K | 1.192 ± 0.036 J/K/mol
19.25 K | 1.422 ± 0.043 J/K/mol
20.24 K | 1.669 ± 0.05 J/K/mol
21.28 K | 1.955 ± 0.059 J/K/mol
22.27 K | 2.25 ± 0.068 J/K/mol
23.28 K | 2.587 ± 0.078 J/K/mol
24.29 K | 2.937 ± 0.088 J/K/mol
25.31 K | 3.319 ± 0.1 J/K/mol
26.33 K | 3.721 ± 0.11 J/K/mol
27.36 K | 4.152 ± 0.12 J/K/mol
28.34 K | 4.576 ± 0.14 J/K/mol
29.38 K | 5.046 ± 0.15 J/K/mol
30.37 K | 5.505 ± 0.17 J/K/mol
31.4 K | 6.006 ± 0.18 J/K/mol
32.4 K | 6.51 ± 0.2 J/K/mol
33.41 K | 7.04 ± 0.21 J/K/mol
34.43 K | 7.567 ± 0.23 J/K/mol
35.43 K | 8.121 ± 0.24 J/K/mol
36.45 K | 8.686 ± 0.26 J/K/mol
37.45 K | 9.258 ± 0.28 J/K/mol
38.41 K | 9.809 ± 0.29 J/K/mol
38.46 K | 9.827 ± 0.3 J/K/mol
39.48 K | 10.43 ± 0.31 J/K/mol
40.48 K | 11.02 ± 0.33 J/K/mol
40.49 K | 11.03 ± 0.33 J/K/mol
42.49 K | 12.25 ± 0.37 J/K/mol
44.51 K | 13.49 ± 0.41 J/K/mol
46.53 K | 14.76 ± 0.44 J/K/mol
48.55 K | 16.05 ± 0.48 J/K/mol
50.57 K | 17.36 ± 0.52 J/K/mol
52.59 K | 18.66 ± 0.56 J/K/mol
54.6 K | 19.95 ± 0.6 J/K/mol
56.62 K | 21.25 ± 0.64 J/K/mol
58.64 K | 22.56 ± 0.68 J/K/mol
60.66 K | 23.86 ± 0.72 J/K/mol
62.68 K | 25.14 ± 0.75 J/K/mol
64.7 K | 26.41 ± 0.79 J/K/mol
66.72 K | 27.64 ± 0.83 J/K/mol
68.74 K | 28.87 ± 0.87 J/K/mol
70.74 K | 30.08 ± 0.9 J/K/mol
72.76 K | 31.29 ± 0.94 J/K/mol
74.78 K | 32.47 ± 0.97 J/K/mol
75.85 K | 33.08 ± 0.99 J/K/mol
76.8 K | 33.62 ± 1 J/K/mol
78.81 K | 34.78 ± 1 J/K/mol
80.81 K | 35.87 ± 1.1 J/K/mol
80.84 K | 35.88 ± 1.1 J/K/mol
85.86 K | 38.64 ± 1.2 J/K/mol
90.91 K | 41.31 ± 1.2 J/K/mol
95.96 K | 43.8 ± 1.3 J/K/mol
101 K | 46.3 ± 1.4 J/K/mol
106 K | 48.66 ± 1.5 J/K/mol
111.1 K | 50.92 ± 1.5 J/K/mol
116.1 K | 53.11 ± 1.6 J/K/mol
121.2 K | 55.16 ± 1.7 J/K/mol
126.2 K | 57.26 ± 1.7 J/K/mol
131.3 K | 59.2 ± 1.8 J/K/mol
136.3 K | 61.11 ± 1.8 J/K/mol
141.4 K | 62.97 ± 1.9 J/K/mol
146.4 K | 64.73 ± 1.9 J/K/mol
151.4 K | 66.44 ± 2 J/K/mol
156.5 K | 68.1 ± 2 J/K/mol
161.5 K | 69.61 ± 2.1 J/K/mol
166.5 K | 71.14 ± 2.1 J/K/mol
171.6 K | 72.74 ± 2.2 J/K/mol
176.6 K | 74.33 ± 2.2 J/K/mol
181.6 K | 75.68 ± 2.3 J/K/mol
186.7 K | 77.05 ± 2.3 J/K/mol
191.7 K | 78.48 ± 2.4 J/K/mol
196.7 K | 79.89 ± 2.4 J/K/mol
201.8 K | 81.31 ± 2.4 J/K/mol
206.8 K | 82.59 ± 2.5 J/K/mol
211.8 K | 83.86 ± 2.5 J/K/mol
216.9 K | 85.21 ± 2.6 J/K/mol
221.9 K | 86.36 ± 2.6 J/K/mol
226.9 K | 87.35 ± 2.6 J/K/mol
231.9 K | 88.39 ± 2.7 J/K/mol
237 K | 89.46 ± 2.7 J/K/mol
242 K | 90.5 ± 2.7 J/K/mol
247 K | 91.49 ± 2.7 J/K/mol
252.1 K | 92.36 ± 2.8 J/K/mol
257.1 K | 93.28 ± 2.8 J/K/mol
262.1 K | 94.21 ± 2.8 J/K/mol
267.1 K | 95.29 ± 2.9 J/K/mol
272.1 K | 96.19 ± 2.9 J/K/mol
277.1 K | 97.31 ± 2.9 J/K/mol
282.2 K | 98.39 ± 3 J/K/mol and 98.37 ± 3 J/K/mol
287.2 K | 99.41 ± 3 J/K/mol
287.3 K | 99.33 ± 3 J/K/mol
292.2 K | 100.36 ± 3 J/K/mol
292.3 K | 100.2 ± 3 J/K/mol
297.3 K | 100.95 ± 3 J/K/mol
302.26 K | 101.79 ± 3.1 J/K/mol
302.33 K | 101.79 ± 3.1 J/K/mol
302.35 K | 101.81 ± 3.1 J/K/mol
307.29 K | 102.41 ± 3.1 J/K/mol
307.35 K | 102.45 ± 3.1 J/K/mol
307.37 K | 102.44 ± 3.1 J/K/mol
312.31 K | 103.05 ± 3.1 J/K/mol
312.37 K | 102.95 ± 3.1 J/K/mol
312.39 K | 103 ± 3.1 J/K/mol
317.33 K | 103.53 ± 3.1 J/K/mol
317.4 K | 103.64 ± 3.1 J/K/mol
317.42 K | 103.68 ± 3.1 J/K/mol
322.35 K | 104.24 ± 3.1 J/K/mol
322.44 K | 104.25 ± 3.1 J/K/mol
322.45 K | 104.34 ± 3.1 J/K/mol
327.36 K | 105.12 ± 3.2 J/K/mol
327.45 K | 105.03 ± 3.2 J/K/mol
327.48 K | 104.97 ± 3.1 J/K/mol
332.38 K | 105.69 ± 3.2 J/K/mol
332.46 K | 105.73 ± 3.2 J/K/mol
332.48 K | 105.57 ± 3.2 J/K/mol
337.4 K | 106 ± 3.2 J/K/mol
337.5 K | 106.2 ± 3.2 J/K/mol and 106.19 ± 3.2 J/K/mol
342.43 K | 106.41 ± 3.2 J/K/mol
342.53 K | 106.46 ± 3.2 J/K/mol
342.55 K | 106.5 ± 3.2 J/K/mol
347.11 K | 107.02 ± 3.2 J/K/mol
347.2 K | 106.86 ± 3.2 J/K/mol
347.23 K | 106.97 ± 3.2 J/K/mol
351.79 K | 107.32 ± 3.2 J/K/mol
351.86 K | 107.38 ± 3.2 J/K/mol and 107.33 ± 3.2 J/K/mol
356.73 K | 107.65 ± 3.2 J/K/mol
356.79 K | 107.89 ± 3.2 J/K/mol
356.81 K | 107.7 ± 3.2 J/K/mol
361.73 K | 108.18 ± 3.2 J/K/mol
361.79 K | 108.22 ± 3.2 J/K/mol
361.8 K | 108.28 ± 3.2 J/K/mol
366.74 K | 108.45 ± 3.3 J/K/mol
366.81 K | 108.25 ± 3.2 J/K/mol and 108.64 ± 3.3 J/K/mol
371.74 K | 108.81 ± 3.3 J/K/mol
371.8 K | 108.77 ± 3.3 J/K/mol
371.82 K | 108.81 ± 3.3 J/K/mol
376.74 K | 109.11 ± 3.3 J/K/mol
376.8 K | 109 ± 3.3 J/K/mol
376.82 K | 108.98 ± 3.3 J/K/mol
381.74 K | 109.41 ± 3.3 J/K/mol
381.81 K | 109.29 ± 3.3 J/K/mol
